Experimental data reported in patent US10113150B2, “Engineered cardiac tissues and methods of using them” (InvivoSciences, Inc., priority 2011, dated 2018).

Tests used:
[1] = test system: cardiac fibroblasts / myofibroblasts (mFBs) in EHTs; assay: Elimination of puromycin-sensitive fibroblasts in EHTs; assay type: cell-based, human; design: effect on mFBs: dose or concentration left out as unconfirmed
Text: We fabricated EHTs using CMs derived from mouse ES cells (Cor.AT, Axiogenesis) that express a puromycin resistance-GFP reporter gene fusion driven by a cardiac-specific (αMHC) promoter. These Cor.AT CMs (1.75×10^6) were co-cultured with cardiac fibroblasts (FBs) in a 1:1 ratio (See Asnes, C. F., et al., Reconstitution of the Frank-Starling mechanism in engineered heart tissues. Biophys J, 2006. 91(5): p. 1800-10) for developing a coherently contracting EHT. The EHTs were compressed by the FBs from a loose (6×6×3.5 mm^3) hydrogel into a compacted (˜3×2×0.5 mm^3) coherently contracting tissue in 5-7 days. […] The remodeling capacity of FBs was needed to fabricate compressed 3D tissues that can generate cardiac contraction synchronously. Upon achieving synchronous contraction, the cardiac twitch force was measured using the Palpator. […] We expected that application of a similar protocol to fabricate EHTs with iPSC-derived CMs should produce similar cardiac contractility since individual CMs derived from human ES cells, iPSCs, and native rat hearts produced equivalent degrees of cardiac contractility. Our results showing similar results for human ES cells is below.
An increasing density of cardiomyocytes (CMs) in the EHT constructs promoted intercellular contacts to form a synchronously contracting EHT while myofibroblasts (mFBs) remodeled and compressed the constructs. However, an overgrowth of mFBs limited survival of CMs. By regulating the mFB proliferation, cardiac contractility of EHTs without mFBs was maintained at least 10-50% longer than those with mFBs. […] The Cor.AT CMs (1.75×10^6) were co-cultured with mFBs in a 5:1 ratio using previously published method and developed a coherently beating EHT. The EHTs with mFBs were compressed from a loose (6×6×3.5 mm^3) hydrogel into a compacted (˜3×2×0.5 mm^3) tissue in 5-7 days (FIG. 15B). Varying numbers of mFBs were mixed with CMs (e.g., 0.1:1, 0.5:1 up to 1:1) to fabricate EHTs. […]

[2] = test system: mitochondrial membrane potential of EHTs; assay: Mitochondrial membrane potential (MMP) of EHTs by TMRE fluorescence; assay type: cell-based, rat
Text: The bottoms of the 8-well chambers were sealed with glass coverslips so that EHT cells could be observed using various optical instruments including microscopes and fluorescence plate readers in real time or after fixations. […] Mitochondria produce ATP via the electrochemical/osmotic gradient (˜180 mV) generated and maintained by the electron transport chain. Therefore, highly charged mitochondria produce ATP to support cardiac contractions.
Using a fluorescence plate reader (Synergy™ HT, BioTek U.S., Winooski, V T), we simultaneously measured TMRE's fluorescent signal (543 nm excitation/605±16 nm emission) and EHT contractions to determine the coupling between MMP and cardiac contractility. After a short (15-min) administration of 900 μM DNP (2,4-dinitrophenol), a potent uncoupler of MMP (FIG. 7F), to the EHTs MMP was reduced and cardiac contraction stopped (FIG. 7E).
Drug-induced cardiotoxicity often damages mitochondrial metabolic activity. We have developed additional assays for quantifying the mitochondrial membrane potential (MMP) of EHTs using the cationic potential metric dye tetramethylrhodamine ethyl ester (TMRE), and we are also assessing EHT viability using 3-(4,5-Dimethylthiazol-2-yl)-2,5-diphenyltetrazolium (MTT). An automated microplate reader was used to measure fluorescence or optical absorbance of these dyes. With these assays, we successfully screened for a small molecule that modulates cellular and tissue contractility without altering MMP and viability of cells (details in Lam, V. and T. Wakatsuki, Hydrogel Tissue Construct-Based High-Content Compound Screening. Journal of Biomolecular Screening, 2011. 16(1): p. 120-128.). Four test compounds were assayed: Rho kinase inhibitor (H1152), cytochalasin D (CD), 2,4-dinitrophenol (DNP), and rotenone (ROT). […] Assays to assess mitochondrial activity and metabolic parameters such as ATP concentrations, O2 consumption and free radical production have been measured using similar techniques, see e.g. Lam, V. and T. Wakatsuki, Hydrogel Tissue Construct-Based High-Content Compound Screening. […]

[3] = test system: engineered heart tissues (EHTs); assay: EHT contractility assay (cardiac twitch force, Palpator)
Text: EHTs were fabricated with 1.75-2×10^6 cardiomyocytes/mL using MC-8™ system (InvivoSciences, LLC). The cardiomyocytes were obtained from neonatal rats and guinea pigs, or embryonic mice or chicken. Viable and spontaneously twitching EHTs were generally obtained by day 10 after fabrication. The EHTs were electrically stimulated (60 mV, 1 Hz) during mechanical testing. The mechanical properties of EHTs using the Palpator™ device (InvivoSciences, LLC). This automated device positions a force probe directly above the center of each well (FIG. 7A-i) and moves it vertically in two (or more) steps (FIG. 7A-ii, -iii) to stretch twice the EHT to 3.7% and 7.7% longitudinally. Cardiac twitch (systolic) force and resting (diastolic) force were measured during each step for 30 and 60 s. […] The peak rate at which the cardiac twitch force changes (FIG. 7C) also indicated the contractility (FIG. 7D) of the EHT much like the dP/dtmax of left ventricles measured by pressure catheters.
To validate the ability of our assay system to assess cardiotoxicity, we profiled the effects of anti-cancer agents (doxorubicin and daunorubicin) and beta-adrenoceptor agonist (isoproterenol), which are known to cause cardiotoxicity in clinical and experimental applications. […] After a 3-day incubation with doxorubicin (20 nM, 200 nM, or 1 μM) the EHTs were measured again and their viability was determined.

[4] = 900 μM, short (15-min) administration to EHTs

Compound	effect on mFBs [1]	effect on puromycin sensitive FBs ([1]; 5 μM, after compaction, EHTs with Cor.AT CMs)	effect on mFB in the EHTs ([1]; 10 μM, Cor.AT myocytes with human cardiac myofibroblasts)	MMP (mitochondrial membrane potential) ([2]; 450 μM)	MMP (mitochondrial membrane potential) [2, 4]	EC50 ([2]; rat EHT, FIG. 14, read-out: EC50 of MMP dissipation) [µM]	cardiac twitch force ([3]; 450 μM)	cardiac contraction [3, 4]	twitch force ([3]; increasing concentrations, FIG. 7E)
COc1ccc(C[C@H](N)C(=O)N[C@H]2[C@@H](O)[C@H](n3cnc4c(N(C)C)ncnc43)O[C@@H]2CO)cc1 [puromycin]	eliminated	eliminated or their viability reduced	eliminated	–	–	–	–	–	–
O=[N+]([O-])c1ccc(O)c([N+](=O)[O-])c1 [DNP, 2,4-dinitrophenol]	–	–	–	attenuated	reduced	340	not reduced significantly	stopped	reduced
